The values that follow come from paper PMC6470533, “Structure–Activity Study, Characterization, and Mechanism of Action of an Antimicrobial Peptoid D2 and Its D- and L-Peptide Analogues” (Molecules, 2019).

Data set [1] has as its system Methicillin sensitive Staphylococcus pseudintermedius (26916). Type of data set: cell-based. Conditions: 18 h.
In data set [2] the test system is Methicillin resistant Staphylococcus pseudintermedius, (C22963). In kind it is cell-based. Conditions: 18 h.
Data set [3] relates to Staphylococcus aureus (ATCC 29213). Type of data set: cell-based. Conditions: ATCC 29213, 18 h.
Data set [4] relates to Pseudomonas aeruginosa (ATCC 27853). In kind it is cell-based. Conditions: ATCC 27853, 18 h. Here is the method:
To explore the antimicrobial activity of the library of peptides and peptidomimetics, they were tested against Acinetobacter baumannii, Corynebacterium auriscanis, Escherichia coli, Enterococcus faecalis, Enterococcus faecium, Klebsiella pneumonia, Proteus mirabilis, and Pseudomonas aeruginosa. Bacteria grown on agar plates for 18 h at 37 °C were diluted to ~1 × 10^8 CFU/mL in Mueller–Hinton broth (MHB). Two-fold serial dilutions of peptides and peptidomimetics in MHB II were inoculated with bacteria to achieve a final concentration of 5 × 10^5 CFU/mL in polypropylene 96 U-well microtiter plates (Almeco, Esbjerg, Denmark), followed by incubation at 37 °C in ambient air for 18 h. The MIC values were determined as the lowest concentration showing no visible bacterial growth. Experiments were performed twice (in technical triplicates) on two different days.

Data set [5] relates to DNA synthesis in MRSP E104. Kind of data set: Macromolecule biosynthesis assay, DNA (3H-thymidine). In kind it is cell-based, Staphylococcus pseudintermedius. The settings on record: 0.5× MIC, 20 min incubation, MRSP E104, 3H-thymidine; means of two experiments. The procedure: (§1) The effect on DNA and cell wall synthesis was investigated after 20 min of incubation of MRSP E104 with the precursors ^3H-thymidine and ^3H-glucosamine hydrochloride, respectively, as previously reported by Ling et al.. Following macromolecule precipitation, radioactivity was counted using scintillation fluid. Incorporation of ^3H- or ^14C-labeled thymidine has been used to investigate DNA replication and transcriptional activity during the cell cycle; ^3H-glucosamine hydrochloride has been used in a mode of action study for the antimicrobial peptide plectasin, which targets the cell wall precursor lipid II [44].
(§2) Macromolecules (DNA and cell wall) biosynthesis rates were measured using strain MRSP E104 following a protocol adapted from Ling et al.. Briefly, overnight culture of E104 was diluted 1:100 in MHB and freshly grown up to OD 0.2 at 600 nm. Grown cells were pelleted down by centrifugation and then resuspended in fresh MHB medium followed by incubation for 20 min on a dry heat-bath with D2 or analogues or nisin and radiolabeled precursor: (50 µCi) ^3H-Thymidine (PerkinElmer) and (5 µCi) ^3H-glucosamine hydrochloride per mL for DNA and cell wall, respectively. A positive control without antimicrobials was maintained that corresponds to 100% synthesis rate. After 20 min of incubation, samples were precipitated with equal volume of cold 30% trichloroactic acid (TCA Sigma, Søborg, Denmark) on ice. After 15 to 30 min of incubation on ice, precipitates were filtered on a membrane filter and subsequently washed twice with cold 15% TCA and twice with cold water using a vacuum manifold. Next, filters were air dried overnight and then moved to 10 mL scintillation vials. Finally, 3 mL scintillation fluid was added to each vial and ^3H count was taken in Beckman Coulter LS6500 liquid scintillation counter for 1 min. The radioactive counts of the control samples with no antimicrobial exposure were considered to have 100% precursor incorporation and macromolecule synthesis. The percentage rates of macromolecule synthesis in the antimicrobial-exposed samples were calculated compared to control. Each experiment was performed twice with a technical replicate, and the average rates of synthesis were plotted.

The test system of data set [6] is cell wall synthesis in MRSP E104. Kind of data set: Macromolecule biosynthesis assay, cell wall (3H-glucosamine hydrochloride). Type of data set: cell-based, Staphylococcus pseudintermedius. Conditions: 0.5× MIC, 20 min incubation, MRSP E104, 3H-glucosamine hydrochloride; means of two experiments. Here is the method: as §1, §2
Data set [7] has as its system membrane proton motive force of E104 cells. Kind of data set: DiSC3(5) fluorescence, membrane depolarization. In kind it is cell-based, Staphylococcus pseudintermedius. The settings on record: 0.5× MIC, n = 2. The source says:
In this study, the DiSC3(5) probe was used to assess the effect of D2 and its structural analogues D2L, D2D, and D2R on cytoplasmic membrane depolarization. DiSC3(5) is a cationic carbocyanine dye, which accumulates on negatively charged membrane, translocates into lipid membrane with a distribution dependent on plasma and mitochondrial membrane potential. Altered emission profile of DiSC3(5) measured via fluorescence spectroscopy indicates membrane depolarization caused by proton motive force dissipation, ATP production and/or pore formation. The increment of DiSC3(5) fluorescence of labeled cells resulting from its leakage upon addition of antimicrobial agents is usually measured over time. The protonophore carbonyl cyanide metachlorophenyl hydrazone (CCCP) is used as positive control, which rapidly dissipates PMF increasing proton permeability, alters both membrane proton gradient and transmembrane electric potential and decreases cellular ATP content. Based on the MIC and growth analysis results, sub-lethal concentrations of D2 and selected analogues were chosen to perform DiSC3(5) fluorescence and macromolecule biosynthesis studies.
Freshly grown E104 cells with OD 0.2 at 600 nm were labeled with 1 µM 3,3-dipropylthiadicarbocyanine iodide [DiSC3(5)] (Sigma-Aldrich, Søborg, Denmark) in MHB. The fluorescence spectra of fluorophore-labeled cells were plotted using the LS-50B luminescence spectrometer (PerkinElmer, Waltham, MA, USA) at excitation/emission wavelengths 546 nm/573 nm using time drive application of FLWINLAB software. After reading initial stable emission spectra of DiSC3(5), labeled cells were exposed with D2 or analogues or nisin or protonophore CCCP by directly injecting the concentrated solution of agent to the cuvette, and the change of fluorescence over time was recorded until emission spectra reached to stability. The increment of DiSC3(5) fluorescence upon addition of antimicrobials or CCCP (FUafter-exposure – FUbefore-exposure) was calculated and plotted in addition to raw fluorescence spectra. Experiment was performed twice and average fluorescence change was plotted with standard deviation.

A further data set concerns MRSP ST71 strain E104. Kind of data set: Growth curve analysis (BioScreen). Type of data set: cell-based, Staphylococcus pseudintermedius. Conditions: at the MIC, MRSP E104, OD600, 6 h, 37 °C. Here is the method:
First, we performed growth curve analysis using the well-characterized MRSP ST71 strain E104, which is resistant to a number of antibiotics. […] A well-characterized antimicrobial peptide, nisin, was used as control. […] Increased concentrations of nisin inhibited proportionally the growth of E104, both at sub-MIC and MIC concentrations.
The effect of D2 or analogues or nisin on the growth of MRSP strain E104 was evaluated using BioScreen (Oy Growth Curves Ab LTd, Helsinki, Finland). Freshly grown culture of E104 was diluted to OD 0.2 at 600 nm, supplemented with increased concentration of antimicrobials and distributed in a 100 well honeycomb micro-plate with volume 100 μL. The plate was incubated for 6 h at 37 °C with continuous shaking. The OD600 of each micro-culture was measured and recorded every 15 min after a 5 s pause of shaking in automatic mode. Recorded OD was plotted against time to prepare the growth curves. Experiment was performed twice and one representative result was presented.

Another data set concerns red blood cell (RBC). Conditions: 0.5% RBC suspension in PBS, 1 h, 37 °C, read at 414 nm, normalized to mellitin and PBS, triplicates.
In the next data set the test system is S. aureus. Also on record: method as in PMID 28262682. The settings on record: cited from earlier work.

In brackets after ≈: the same amount, converted by molar mass. Non-standard residues stand in square brackets, D forms with d. Residues, ends and D or L forms follow the SMILES beside them. No end group written: not given here. N(1-naphthylmethyl)Gly = O=C(O)CNCc1cccc2ccccc12; 1Nal = N[C@@H](Cc1cccc2ccccc12)C(=O)O; d1Nal = N[C@H](Cc1cccc2ccccc12)C(=O)O; N(4-MeBn)Gly = Cc1ccc(CNCC(=O)O)cc1; dNle = CCCC[C@@H](N)C(=O)O; Nle = CCCC[C@H](N)C(=O)O; Nlys = NCCCCNCC(=O)O

Method for red blood cell (RBC): Briefly, 75 µL of peptide in PBS was mixed with 75 µL of a 0.5% red blood cell (RBC) suspension in PBS, and incubated for 1 h at 37 °C. The hemoglobin release was then measured at 414 nm and normalized, using mellitin as positive control and PBS as negative control. Experiments were done in triplicates.

Regarding `CCCC[C@H](NC(=O)[C@H](CCCCN)NC(=O)[C@H](Cc1cccc2ccccc12)NC(=O)[C@H](CCCCN)NC(=O)[C@H](Cc1ccccc1)NC(=O)[C@H](Cc1cccc2ccccc12)NC(=O)[C@H](CCCCN)NC(=O)[C@@H](N)CCCCN)C(N)=O` [D2L] (H-KK[1Nal]FK[1Nal]K[Nle]-NH2; N-terminus assumed), the “MIC MSSP” value in [1] was found to be 16 µg/mL (≈ 13.5 µM). Besides, the “MIC MRSP” value in data set [2] worked out at 8 µg/mL (≈ 6.75 µM). Further, the “MIC SA” value in data set [3] was 32 µg/mL (≈ 27 µM). The “MIC PA” value in [4] turned out to be 16 µg/mL (≈ 13.5 µM). Moreover, the “inhibition of DNA biosynthesis rate” value in data set [5] was determined as 17%. Also, the “effect on (inhibition of) cell wall synthesis” value in data set [6] worked out at 31%. In addition, the “effect on PMF (membrane depolarization, DiSC3(5) fluorescence)” value (“effect on PMF” for short) in data set [7] was “strongest effect on PMF”. In the data set on MRSP ST71 strain E104, the “growth curve, change of cell optical density over time” value is listed as “cell lysis”. Also, the “HA, percentage of hemolysis at 150 µM” value in the data set with red blood cell (RBC) stood at 35%.
For the compound `CCCC[C@H](N)C(=O)N[C@@H](CCCCN)C(=O)N[C@@H](Cc1cccc2ccccc12)C(=O)N[C@@H](CCCCN)C(=O)N[C@@H](Cc1ccccc1)C(=O)N[C@@H](Cc1cccc2ccccc12)C(=O)N[C@@H](CCCCN)C(=O)N[C@@H](CCCCN)C(N)=O` [D2R] (H-[Nle]K[1Nal]KF[1Nal]KK-NH2; N-terminus assumed), the “MIC MSSP” value in data set [1] stood at 16 µg/mL (≈ 13.5 µM). Besides, the “MIC MRSP” value in [2] worked out at 4 µg/mL (≈ 3.38 µM). Also, the “MIC SA” value in [3] is 32 µg/mL (≈ 27 µM). Also, in [4], the “MIC PA” value lay in the range of 32 to 64 µg/mL. In addition, the “inhibition of DNA biosynthesis rate” value in data set [5] is listed as below 5%. In addition, in [6], the “effect on (inhibition of) cell wall synthesis” value is 22%. For the same compound, the “effect on PMF” value in [7] was “strongest effect on PMF”. For the same compound, the “growth curve, change of cell optical density over time” value in the data set on MRSP ST71 strain E104 is reported as “cell lysis”. In addition, in the data set with red blood cell (RBC), the “HA, percentage of hemolysis at 150 µM” value turned out to be 23%.
`CCCC[C@@H](NC(=O)[C@@H](CCCCN)NC(=O)[C@@H](Cc1cccc2ccccc12)NC(=O)[C@@H](CCCCN)NC(=O)CN(Cc1ccc(C)cc1)C(=O)CN(Cc1cccc2ccccc12)C(=O)CN(CCCCN)C(=O)CNCCCCN)C(N)=O` [compound 13] (H-[Nlys][Nlys][N(1-naphthylmethyl)Gly][N(4-MeBn)Gly][dK][d1Nal][dK][dNle]-NH2; N-terminus assumed): the “MIC MSSP” value in data set [1] is 4 µg/mL (≈ 3.34 µM). Further, the “MIC MRSP” value in [2] is reported as 4 µg/mL (≈ 3.34 µM). Also, the “MIC SA” value in [3] worked out at 8 µg/mL (≈ 6.67 µM). Further, in data set [4], the “MIC PA” value came to 8 µg/mL (≈ 6.67 µM). Moreover, in the data set on red blood cell (RBC), the “HA, percentage of hemolysis at 150 µM” value is 34%.
On to KLKLLLLLKLK-NH2, for which the “antimicrobial activity (MIC) against S. aureus” value in the data set with S. aureus is 16 µg/mL.
Regarding “nisin (ITSISLCTPGCKTGALMGCNMKTATCHCSIHVSK; also: lantibiotic: lanthionine rings and dehydro residues, places not given here; UniProt P13068 24-57, looked up) [well-characterized antimicrobial peptide used as control, reference compound]”, the “inhibition of DNA biosynthesis rate” value in [5] came out at 45%. Also, in data set [7], the “effect on PMF” value is reported as “does not have any effect on PMF”.
